Test results: patent US20250230138A1, “COMPOUNDS HAVING A T-STRUCTURE FORMED BY AT LEAST FOUR CYCLES FOR USE IN THE TREATMENT OF CANCER AND OTHER INDICATIONS” (TheRas, Inc., priority 2022, published 2025)
Where two headings read alike, the source gives them in different places.

Columns and labels:
[1] = biological target: KRAS-PI3Kα interaction (KRAS-Q25A binding to avi-tagged full length PI3Kα) (Homo sapiens (Human), UniProt P42336); assay: Disrupting KRAS-PI3Kα interaction by SPR inhibition assay; conditions: KRAS-Q25A at 20 μM, 25° C.
Procedure: SPR binding experiments were collected on a Biacore 8K Instrument (Cytiva). Neutravidin (Pierce) was amine coupled to the carboxymethylated dextran surface of a CM5 sensor chip (Cytiva) using standard amine coupling chemistry. The CM5 chip surface was first activated with 0.1 M N-hydroxy succinimide and 0.4 M N-ethyl-N′-(3-dimethyl aminopropyl) carbodiimide at a flow rate of 20 μL/min using 20 mM HEPES pH 7.4, 150 mM NaCl as the running buffer. Next, neutravidin was diluted to 20 μg/mL in 10 mM sodium acetate (pH 4.5) and injected on all flow cells until a density of approximately 10,000 response units (RU) was immobilized. Activated amine groups were quenched with an injection of 1 M ethanolamine (pH 8.0). 300-500 RU of avi-tagged full length PI3Kα was captured on all flow cells in 20 mM HEPES pH 7.4, 150 mM NaCl, 5 mM MgCl2, 1 mM TCEP, 0.05% tween 20, 5% DMSO buffer. KRAS-Q25A at 20 μM was mixed with 8 concentrations of compound (50 nM-100 μM) and injected over the full-length PI3Kα at 30 μL/min and 25° C. Steady-state levels of KRAS binding were recorded and fit with a 4-parameter inhibition model to determine the IC50 values.

[2] = biological target: Cys242 in human PIK3CA (157-299) (Homo sapiens (Human), UniProt P42336); assay: Covalent modification assay using MALDI-TOF MS; format: biochemical; conditions: 4 h reaction time point; 3.33 μM protein target, 1:7.5 protein to compound ratio (compounds 1-852)
Summary of the method: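 Covalent adduct formation was read by linear-mode MALDI-TOF with sinapinic acid matrix, reported as modified-protein peak height divided by total protein peak heights. Reactions held PIK3CA (157-299) at 1 or 3.33 μM in HEPES/NaCl/MgCl2 buffer, pH 7.3, sampled after 15 min to 4 h at room temperature.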

[3] = tested on: pAKT in Tet-on KRAS G12D HeLa cells; assay: Cell-based pAKT HTRF assay in Tet-on KRAS G12D HeLa cells; conditions: read-out: pAKT inhibition IC50 in Tet-on KRAS G12D HeLa cells
Procedure: To determine the effectiveness of compounds in disrupting PIK3CA/KRAS signaling in cells, we implemented pAKT HTRF assay (Perkin-Elmer) in Tet-on KRAS G12D HeLa cells.
On Day 1, cells were seeded into 96-well plates at 2×10^4 cells/well in complete growth media (DMEM, 10% Tet-Screened FBS) supplemented with 200 ng/mL doxycycline.
On Day 2, cells were treated with compounds at 0.25% DMSO. The source plate was created with compounds diluted in media at 5-fold the final assay concentration. The compounds are run in a 9-point concentration curve starting at 75 μM, with a 3-fold dilution between concentrations. […] 20 μL was transferred onto the cell plates (final volume in wells was 100 μL). Plates were harvested after 30 min and 4 hr incubation by aspirating media and adding kit-supplied 1× supplemented lysis buffer to all wells (50 μL per well). This then changed to 4 hr only when compounds became covalent. Plates were then placed on a plate shaker and incubated at 850 rpm for an additional 30 min. The antibody mixture solution was prepared by diluting aliquoted d2 and Eu Cryptate antibodies 1:20 in kit supplied detection buffer, then mixed the diluted antibodies solutions (1:1 v:v). 4 μL of this solution was then added to a 384-well detection plate (Perkin Elmer; 6008230). Samples were homogenized by pipetting up and down and then transferred (16 μL of cell lysates) from the 96-well cell culture plate to two wells of the HTRF 384-well detection plate containing the antibody solution. Plates were centrifuged (524 g for 1 min) and allowed to incubate between 4 and 24 h at room temperature. The maximum signal is reached after 4 h incubation time and remains stable over a period of 24 hours. Therefore, readings can be made between 4 and 24 h of incubation. Plates were centrifuged again (524 g for 1 min), and analyzed on the EnVision plate reader using the following settings: Excitation 320 nm, Bandwidth […]; Emission 615 nm, Bandwidth […], Gain 100%, Flashes 100, Lag 60 μs.

pAKT in BT474 cells = assay: Cell-based pAKT HTRF assay in BT474 cells; conditions: BT474 cells; 4 hr incubation; Compounds 10-999; read-out: pAKT inhibition IC50 in BT474 cells
Summary of the method: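 BT474 cells in DMEM/10% FBS were treated the day after seeding with a 9-point, 3-fold compound series from 3 μM (0.25% DMSO) for 4 hr. Lysates were mixed with d2 and Eu cryptate anti-pAKT antibodies and incubated 4-24 h at room temperature. HTRF was read with excitation at 320 nm and emission at 615 nm.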

KRAS-PI3Kα interaction (KRAS-Q25A binding to avi-tagged full length PI3Kα), sequence (P42336 whole entry, looked up, stated change not applied): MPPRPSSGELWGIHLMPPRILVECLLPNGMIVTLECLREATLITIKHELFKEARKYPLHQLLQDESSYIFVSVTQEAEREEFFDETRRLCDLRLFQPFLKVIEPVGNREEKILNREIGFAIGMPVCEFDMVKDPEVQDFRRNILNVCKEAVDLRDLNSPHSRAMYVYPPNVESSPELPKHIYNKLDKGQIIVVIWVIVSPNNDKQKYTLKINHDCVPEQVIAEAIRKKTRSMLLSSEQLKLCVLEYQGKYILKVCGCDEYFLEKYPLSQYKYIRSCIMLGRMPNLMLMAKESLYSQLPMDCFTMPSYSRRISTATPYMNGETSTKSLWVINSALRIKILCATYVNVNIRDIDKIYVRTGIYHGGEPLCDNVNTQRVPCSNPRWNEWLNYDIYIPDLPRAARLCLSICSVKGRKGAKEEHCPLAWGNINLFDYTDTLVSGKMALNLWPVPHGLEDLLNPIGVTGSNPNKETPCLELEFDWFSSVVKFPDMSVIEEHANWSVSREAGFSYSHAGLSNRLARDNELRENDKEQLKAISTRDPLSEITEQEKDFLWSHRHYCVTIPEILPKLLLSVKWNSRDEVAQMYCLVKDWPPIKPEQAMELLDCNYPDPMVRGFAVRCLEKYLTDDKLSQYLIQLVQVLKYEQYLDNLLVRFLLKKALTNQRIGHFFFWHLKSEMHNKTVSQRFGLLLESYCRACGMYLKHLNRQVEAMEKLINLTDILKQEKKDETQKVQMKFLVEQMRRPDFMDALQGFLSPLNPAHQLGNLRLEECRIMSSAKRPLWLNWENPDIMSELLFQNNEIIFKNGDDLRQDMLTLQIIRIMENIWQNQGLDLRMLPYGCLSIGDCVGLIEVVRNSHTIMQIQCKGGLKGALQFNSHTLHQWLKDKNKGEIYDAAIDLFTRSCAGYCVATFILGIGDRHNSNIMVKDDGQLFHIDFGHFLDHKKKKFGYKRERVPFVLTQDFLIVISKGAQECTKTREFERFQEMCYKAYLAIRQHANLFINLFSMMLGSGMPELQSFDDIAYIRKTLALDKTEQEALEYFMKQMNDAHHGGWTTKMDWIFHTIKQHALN
KRAS-PI3Kα interaction (KRAS-Q25A binding to avi-tagged full length PI3Kα), sequence (P27986 whole entry partner, looked up): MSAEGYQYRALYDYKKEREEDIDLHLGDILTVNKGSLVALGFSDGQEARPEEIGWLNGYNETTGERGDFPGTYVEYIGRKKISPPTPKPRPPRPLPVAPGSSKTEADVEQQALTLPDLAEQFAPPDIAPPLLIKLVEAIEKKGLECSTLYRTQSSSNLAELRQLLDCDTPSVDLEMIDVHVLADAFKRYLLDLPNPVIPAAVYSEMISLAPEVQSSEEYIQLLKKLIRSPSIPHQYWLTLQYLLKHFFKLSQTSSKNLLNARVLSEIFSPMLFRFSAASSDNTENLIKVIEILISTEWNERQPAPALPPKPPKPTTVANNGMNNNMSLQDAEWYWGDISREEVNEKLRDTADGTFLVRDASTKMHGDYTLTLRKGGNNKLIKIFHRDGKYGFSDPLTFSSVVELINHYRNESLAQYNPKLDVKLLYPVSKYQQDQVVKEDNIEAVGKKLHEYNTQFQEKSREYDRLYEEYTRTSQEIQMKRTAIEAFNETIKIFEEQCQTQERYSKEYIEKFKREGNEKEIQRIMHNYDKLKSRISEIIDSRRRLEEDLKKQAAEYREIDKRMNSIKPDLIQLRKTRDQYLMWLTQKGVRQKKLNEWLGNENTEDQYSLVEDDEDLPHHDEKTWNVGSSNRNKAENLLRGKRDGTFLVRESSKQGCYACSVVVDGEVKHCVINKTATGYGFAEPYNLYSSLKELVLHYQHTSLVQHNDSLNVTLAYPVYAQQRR
Cys242 in human PIK3CA (157-299), sequence (P42336 157-299): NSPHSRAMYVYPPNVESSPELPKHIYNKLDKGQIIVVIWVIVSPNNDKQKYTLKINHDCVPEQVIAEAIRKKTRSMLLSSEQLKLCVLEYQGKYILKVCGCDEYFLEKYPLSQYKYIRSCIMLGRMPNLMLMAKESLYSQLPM

IC50 [1] | IC50 ([3]; Tet-on KRAS G12D HeLa cells) | IC50 ([3]; Homo sapiens, HeLa) | IC50 (pAKT in BT474 cells) | SMILES | % of modification [2]
5 to 25 µM | < 1 µM | – | – | C=CC(=O)N1CCC(n2cc(-c3nc(-c4ccc5c(c4)CCN(C)C5)c4ccsc4c3-c3ccc(F)cc3OCCOC)cn2)C1 (stereo not shown) [compound 43] | A (percent of modification of PIK3CA protein ≥75%)
< 5 µM | 1 to 10 µM | – | – | COCCOc1cc(F)ccc1-c1c(-c2cccc(CNC(=O)C(C)(C)C)c2)nc(-c2ccc3c(c2)CCNC3)c2ccsc12 [compound 18] | –
5 to 25 µM | 1 to 10 µM | – | – | CCC(=O)NCc1cccc(-c2nc(-c3ccc4c(c3)CCNC4)c3ccsc3c2-c2ccc(F)cc2OCCOC)c1 [compound 9] | –
5 to 25 µM | 1 to 10 µM | – | – | COCCOc1cc(F)ccc1-c1c(-c2cnn(CCC(=O)NC(C)(C)C)c2)nc(-c2ccc3c(c2)CCNC3)c2ccsc12 [compound 41] | –
< 5 µM | 1 to 10 µM | – | – | C=CC(=O)NCCc1cccc(-c2nc(-c3ccc4c(c3)CCNC4)c3ccsc3c2-c2ccc(F)cc2OCCOC)c1 [compound 40] | A (percent of modification of PIK3CA protein ≥75%)
< 5 µM | – | 1 to 10 µM | – | C=CC(=O)NCc1cccc(-c2nc(-c3ccc4c(c3)CCNC4)c3ccsc3c2-c2ccc(F)cc2OCCOC)c1 [Compound 11, N-[[3-[7-[4-fluoro-2-(2-methoxyethoxy)phenyl]-4-(1,2,3,4-tetrahydroisoquinolin-6-yl)thieno[3,2-c]pyridin-6-yl]phenyl]methyl]prop-2-enamide] | C (25%≤percent of modification <50%)
5 to 25 µM | < 1 µM | – | – | C=CC(=O)Nc1cccc(-c2nc(-c3ccc4c(c3)CCN(C)C4)c3ccsc3c2-c2ccc(F)cc2OCCOC)c1 [compound 32] | A (percent of modification of PIK3CA protein ≥75%)
< 5 µM | 1 to 10 µM | – | – | C=CC(=O)Nc1cccc(-c2nc(-c3ccc4c(c3)CCC(N(C)C)C4)c3ccsc3c2-c2ccc(F)cc2OCCOC)c1 (stereo not shown) [compound 36] | A (percent of modification of PIK3CA protein ≥75%)
5 to 25 µM | 1 to 10 µM | – | – | COCCOc1cc(F)ccc1-c1c(-c2cccc(C(=O)NC(C)C)c2)nc(-c2ccc3c(c2)CCNC3)c2ccsc12 [compound 17] | –
5 to 25 µM | < 1 µM | – | – | C=CC(=O)N1CC(Cn2cc(-c3nc(-c4ccc5c(c4)CCNC5)c4ccsc4c3-c3ccc(F)cc3OCCOC)cn2)C1 [compound 48] | –
< 5 µM | 1 to 10 µM | – | – | CCC(=O)Nc1cccc(-c2nc(-c3ccc4c(c3)CCNC4)c3ccsc3c2-c2ccc(F)cc2OCCOC)c1 [compound 29] | –
5 to 25 µM | < 1 µM | – | – | C=CC(=O)N1CC[C@@H](n2cc(-c3nc(-c4ccc5c(c4)CCNC5)c4ccsc4c3-c3ccc(F)cc3OCCOC)cn2)C1 [compound 46] | A (percent of modification of PIK3CA protein ≥75%)
< 5 µM | 1 to 10 µM | – | 1 to 3 µM | COCCOc1cc(F)ccc1-c1c(-c2cccc(CNC(=O)C(C)C)c2)nc(-c2ccc3c(c2)CCNC3)c2ccsc12 [compound 10] | –
5 to 25 µM | > 10 µM | – | – | COCCOc1cc(F)ccc1-c1c(-c2cccc(CNC(=O)C(C)C)c2)nc(-c2ccc3c(c2)CCNC3)c2ccsc12 [compound 14] | –
5 to 25 µM | < 1 µM | – | – | C=CC(=O)N1CCC(n2cc(-c3nc(-c4ccc5c(c4)CCNC5)c4ccsc4c3-c3ccc(F)cc3OCCOC)cn2)CC1 [compound 30] | A (percent of modification of PIK3CA protein ≥75%)
< 5 µM | > 10 µM | – | – | COCCOc1cc(F)ccc1-c1c(-c2cccc(CNC(=O)CC(C)(C)C)c2)nc(-c2ccc3c(c2)CCNC3)c2ccsc12 [compound 19] | –

SMILES | IC50 [1] | IC50 ([3]; Tet-on KRAS G12D HeLa cells) | IC50 ([3]; Homo sapiens, HeLa) | IC50 (pAKT in BT474 cells) | % of modification [2]
C=CC(=O)NCc1cccc(-c2nc(-c3ccc4c(c3)CCNC4)c3c(c2-c2ccccc2OCCOC)CCC3)c1 [Compound 1, N-(3-(4-(2-(2-methoxvethoxy)phenyl)-1-(1,2,3,4-tetrahydroisoquinolin-6-yl)-6,7-dihydro-5H-cyclopenta[c]pyridin-3-yl)benzyl)acrylamide] | 5 to 25 µM | 1 to 10 µM | – | – | D (percent of modification <25%)
